Data on five compounds can be found in patent US5510332A, “Process to inhibit binding of the integrin α4 62 1 to VCAM-1 or fibronectin and linear peptides therefor” (priority 1994, dated 1996).

pIC50: −log10 of the molar value. Where a SMILES comes first, the peptide text is derived from it. Where no end group is shown, it is not given here.

Assay [1] addresses T1, binding of α4 β1 integrin to VCAM-1 (Homo sapiens, UniProt P05556+P13612).
T1 construct: endogenous in cells; host or cells: Ramos (human B-cell line) for endogenous α4β1; the VCAM-mouse IgG fusion was made in house, secreted from transfected COS cells and captured on goat anti-mouse IgG Dynal beads
The experiment in a line: Cell-protein assay: calcein-labelled Ramos cells binding to VCAM-mouse IgG fusion protein on magnetic beads. The class given is cell-based. The settings on record: for peptide concentration at which binding of α4 β1 to VCAM-1 is significantly inhibited: less than about 100, assay format not stated. From the text:
The VCAM-1 binding assays involved assessing the ability of cells that express α4 β1 to bind cells expressing VCAM (cell-cell assay) or to bind purified VCAM protein (cell-protein assay). The integrin-expressing cell types used in these assays included the human B-cell line, Ramos, and the human promyelocytic line, HL-60. The cell-cell assay was used to compare the relative potency of peptides at a single dose. The cell-protein assay was used to generate dose response curves and determine IC50 values.
An expression vector was designed such that a region of VCAM known to bind the integrin was-expressed as a fusion protein with mouse IgG. A cDNA containing the two N-terminal domains of human VCAM was generated by the polymerase chain reaction (PCR) from a full length VCAM cDNA. Similarly, a cDNA containing the hinge, CH2 and CH3 regions of mouse IgG2A was amplified by PCR from cDNA made from total RNA isolated from the hybridoma cell line 402C10. The VCAM cDNA was ligated to the mouse IgG cDNA and cloned into a mammalian expression vector. […] The media was collected and active protein was purified by immunoprecipitation using Dynal magnetic polystyrene beads coated with goat anti-mouse IgG. Following immunoprecipitation, the beads bound Ramos cells that expressed the integrin α4 β1.
Ramos cells were fluorescently labeled with calcein AM (Molecular Probes) and resuspended in 1 ml of binding buffer (Hanks' balanced salt solution, pH 7.4, 1.0 mM CaCl2, 1.0 mM MgCl2 and 1.0 mM MnCl2). The beads (10 μl, 4×10^6 beads/ml) were placed in wells of a 96-well microtiter dish with 10 μl of peptide at various concentrations. The beads were incubated with 10 μl of labeled cells (10^7 cells/ml) for 10 min at room temperature. Following immobilization of the beads onto the plastic with a magnet, unbound cells were removed by washing three times with binding buffer. The remaining bound cells were lysed in 50 mM Tris, pH 7.4, 5.0 mM EDTA, 1.0% NP-40 and quantitated by fluorimetry using a Millipore Cytofluor 2350 fluorimeter. Dose response curves were calculated and IC50 values determined. Peptides having the amino acid residue sequences of SEQ ID NOs:8-102 were tested for their ability to inhibit the binding of α4 β1 integrin to VCAM-1.

Assay [2] deals with T2, binding of the integrin α4 β1 to VCAM (Homo sapiens, UniProt P05556+P13612).
T2 construct: endogenous in cells; host or cells: Ramos (human B-cell line) for endogenous α4β1; CHO cells stably transfected with human VCAM cDNA for the counter-receptor
T2 sequence (P13612 34-1032): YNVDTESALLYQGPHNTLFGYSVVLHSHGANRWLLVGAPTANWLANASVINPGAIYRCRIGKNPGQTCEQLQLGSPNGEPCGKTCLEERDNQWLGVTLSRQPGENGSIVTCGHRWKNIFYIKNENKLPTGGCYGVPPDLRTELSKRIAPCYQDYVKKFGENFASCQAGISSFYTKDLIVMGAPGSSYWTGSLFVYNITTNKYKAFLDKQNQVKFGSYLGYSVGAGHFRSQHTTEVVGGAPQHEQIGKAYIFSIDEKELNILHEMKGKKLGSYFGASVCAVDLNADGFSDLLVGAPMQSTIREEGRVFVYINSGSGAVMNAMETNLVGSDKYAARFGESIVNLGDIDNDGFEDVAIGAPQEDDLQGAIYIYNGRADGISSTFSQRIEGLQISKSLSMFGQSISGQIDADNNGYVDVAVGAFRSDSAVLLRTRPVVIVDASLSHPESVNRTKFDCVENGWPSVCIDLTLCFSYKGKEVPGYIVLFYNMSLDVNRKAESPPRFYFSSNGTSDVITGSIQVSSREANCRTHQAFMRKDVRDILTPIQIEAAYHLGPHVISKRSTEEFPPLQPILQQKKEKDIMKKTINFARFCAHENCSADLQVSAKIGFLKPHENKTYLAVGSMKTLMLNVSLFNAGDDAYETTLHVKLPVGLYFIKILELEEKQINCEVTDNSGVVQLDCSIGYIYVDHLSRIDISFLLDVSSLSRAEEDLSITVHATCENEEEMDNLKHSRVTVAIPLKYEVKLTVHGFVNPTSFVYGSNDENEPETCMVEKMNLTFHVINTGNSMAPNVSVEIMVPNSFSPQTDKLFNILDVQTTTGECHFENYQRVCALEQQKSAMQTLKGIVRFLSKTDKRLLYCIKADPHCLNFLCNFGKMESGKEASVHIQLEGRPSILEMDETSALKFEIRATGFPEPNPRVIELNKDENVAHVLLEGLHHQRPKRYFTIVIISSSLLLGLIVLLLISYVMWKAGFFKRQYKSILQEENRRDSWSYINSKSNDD
T2 sequence (P05556 21-798): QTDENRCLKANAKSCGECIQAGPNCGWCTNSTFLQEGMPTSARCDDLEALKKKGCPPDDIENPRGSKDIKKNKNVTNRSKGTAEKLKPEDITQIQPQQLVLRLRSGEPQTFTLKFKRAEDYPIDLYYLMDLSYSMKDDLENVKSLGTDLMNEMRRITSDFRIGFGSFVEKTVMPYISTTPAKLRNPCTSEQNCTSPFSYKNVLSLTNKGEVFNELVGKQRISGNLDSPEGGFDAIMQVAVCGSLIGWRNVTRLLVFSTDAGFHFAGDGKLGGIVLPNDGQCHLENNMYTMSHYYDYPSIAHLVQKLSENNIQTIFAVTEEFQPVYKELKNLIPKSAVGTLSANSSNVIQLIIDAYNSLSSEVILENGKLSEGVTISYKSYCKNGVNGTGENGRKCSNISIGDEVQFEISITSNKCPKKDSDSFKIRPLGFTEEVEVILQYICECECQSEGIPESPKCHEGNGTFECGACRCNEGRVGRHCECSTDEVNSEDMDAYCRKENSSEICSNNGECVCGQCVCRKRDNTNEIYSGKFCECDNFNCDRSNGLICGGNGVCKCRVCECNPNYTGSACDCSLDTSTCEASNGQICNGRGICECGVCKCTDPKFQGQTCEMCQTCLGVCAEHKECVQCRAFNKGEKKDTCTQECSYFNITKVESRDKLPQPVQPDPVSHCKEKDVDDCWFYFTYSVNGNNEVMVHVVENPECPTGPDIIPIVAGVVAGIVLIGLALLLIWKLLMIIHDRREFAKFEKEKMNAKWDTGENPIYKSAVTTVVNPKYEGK
The assay can be described thus: Cell-cell assay: 35S-labelled Ramos cells binding to VCAM expressing CHO cells. The class given is cell-based. The following applies: single concentration at which SEQ ID NO:9 gives approximately 50% inhibition of adhesion; SEQ ID NO:9 = 1.00; >2.00 indicates little or no inhibition of VCAM-α4 β1 binding. From the text: The VCAM-1 binding assays involved assessing the ability of cells that express α4 β1 to bind cells expressing VCAM (cell-cell assay) or to bind purified VCAM protein (cell-protein assay). The integrin-expressing cell types used in these assays included the human B-cell line, Ramos, and the human promyelocytic line, HL-60. The cell-cell assay was used to compare the relative potency of peptides at a single dose. The cell-protein assay was used to generate dose response curves and determine IC50 values. A human VCAM cDNA was amplified by the polymerase chain reaction (PCR) from cDNA reverse transcribed from RNA isolated from human umbilical vein endothelial cells. The VCAM cDNA was ligated into a mammalian expression vector and electroporated into chinese hamster ovary (CHO) cells. Cells were grown in G418 selective media and clones expressing high levels of VCAM were selected by FACS analysis. VCAM expressing CHO cells and nontransfected CHO cells were plated in 48 well cluster dishes at a density of 50,000 cells/well 24 hour prior to assay. The dishes were washed with binding buffer (DMEM, 1% BSA, 1.0 mM MnCl2, 0.02% sodium azide, pH 7.4) immediately prior to assay. […] Unbound cells were removed by washing with binding buffer and the remaining bound cells were lysed with 50 mM Tris, pH 8.0, 150 mM NaCl, 1% SDS and transferred to scintillation vials for quantitation.

T1 sequence (P13612 34-1032): as the sequence (P13612 34-1032) above
T1 sequence (P05556 21-798): as the sequence (P05556 21-798) above

On to “EWLDV-NH2 [SEQ ID NO:13, Glu-Trp-Leu-Asp-Val-amide]”, for which the “peptide concentration at which binding of α4 β1 to VCAM-1 is significantly inhibited” value in assay [1] was “less than 100 μM”.

On to “GPEWLDVP-NH2 [SEQ ID NO:9, Gly-Pro-Glu-Trp-Leu-Asp-Val-Pro-amide]”, for which, in assay [2], the “relative quantity of adhered cells in relationship to peptide SEQ ID NO:9” value came out at 1.00. The pIC50 in assay [1] (independent cell-protein based assays) is 4.52.

For the compound `CC(C)C[C@H](NC(=O)[C@@H](N)Cc1ccccc1)C(=O)N[C@@H](CC(=O)O)C(=O)N[C@H](C(N)=O)C(C)C` [SEQ ID NO:25, Phe-Leu-Asp-Val-amide] (H-FLDV-NH2), the “peptide concentration at which binding of α4 β1 to VCAM-1 is significantly inhibited” value in assay [1] is “less than 100 μM”.

“EWLDV-OH [SEQ ID NO:14, Glu-Trp-Leu-Asp-Val-acid]”: the “peptide concentration at which binding of α4 β1 to VCAM-1 is significantly inhibited” value in assay [1] was “less than 100 μM”.

For `CC(=O)N[C@@H](Cc1c[nH]c2ccccc12)C(=O)N[C@@H](CC(C)C)C(=O)N[C@@H](CC(=O)O)C(=O)N[C@H](C(N)=O)C(C)C` [SEQ ID NO:11, Ac-Trp-Leu-Asp-Val-amide] (Ac-WLDV-NH2), the “peptide concentration at which binding of α4 β1 to VCAM-1 is significantly inhibited” value in assay [1] is “less than 100 μM”.

The pIC50 is the IC50 on a negative log10 scale, so that one unit is a factor of ten.
